The target of one series is HDAC1 (Homo sapiens (Human), UniProt Q13547). The series can be described thus: HDAC1 enzymatic assay. The series is classed as biochemical. As to conditions: read-out: Human HDAC1 IC50. The essentials:
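HDAC1 activity was measured in duplicate 50 μl reactions containing 0.5 ng HDAC1, 10 uM of HDAC substrate, and test compound in buffer (50 mM Tris-HCl, pH 7.4, 137 mM NaCl, 2.7 mM KCl, 0.05% Tween 20, 5 μg BSA) with 1% DMSO, incubated 17 hours at room temperature. HDAC Developer was then added for 20 minutes and fluorescence read at 360/460 nm.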

A further series concerns the target HDAC6 (Homo sapiens (Human), UniProt Q9UBN7). The series can be described thus: HDAC6 enzymatic assay. The series is classed as biochemical. The following applies: read-out: Human HDAC6 IC50. The essentials:
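Human HDAC6 activity was measured in duplicate 50 μl reactions holding 2 ng HDAC6, 10 uM of HDAC substrate and test compound in HDAC assay buffer (50 mM Tris-HCl, pH 7.4, 137 mM NaCl, 2.7 mM KCl, 0.05% Tween 20, 5 μg BSA) with 1% DMSO, for 17 hours at room temperature. HDAC Developer was added for 20 minutes before reading fluorescence at 360/460 nm.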

A short description of series [1]: Mouse Pharmacokinetics, oral single dose. The following applies: male, Swiss Albino, plasma, 5 mg/kg, formulation by footnote: a 20% CremEL in H20, b 1% CMC in water, c 2% DMSO, 0.2% Tween80, 97.8% of 1% CMC. The series is classed as in vivo, male Swiss Albino mice. As for the experimental part:
Example 187: Mouse Pharmacokinetics
A dose of 5 mg/kg in an appropriate formulation was administered by oral gavage to fasted male Swiss Albino mice (n=3), and the plasma was collected at 0, 0.25, 0.5, 1, 2, 4, 8, and 24 h. Plasma levels were measured by HPLC/MS/MS methods and the pharmacokinetic parameters were determined for individual animals from plasma concentration-time data using noncompartmental model 200-202 in Phoenix WinNonlin 6.3.

SMILES strings stand for the structures. A value given as a limit tells only on which side of the number the result lay.

Sequence of HDAC1 (Q13547 whole entry): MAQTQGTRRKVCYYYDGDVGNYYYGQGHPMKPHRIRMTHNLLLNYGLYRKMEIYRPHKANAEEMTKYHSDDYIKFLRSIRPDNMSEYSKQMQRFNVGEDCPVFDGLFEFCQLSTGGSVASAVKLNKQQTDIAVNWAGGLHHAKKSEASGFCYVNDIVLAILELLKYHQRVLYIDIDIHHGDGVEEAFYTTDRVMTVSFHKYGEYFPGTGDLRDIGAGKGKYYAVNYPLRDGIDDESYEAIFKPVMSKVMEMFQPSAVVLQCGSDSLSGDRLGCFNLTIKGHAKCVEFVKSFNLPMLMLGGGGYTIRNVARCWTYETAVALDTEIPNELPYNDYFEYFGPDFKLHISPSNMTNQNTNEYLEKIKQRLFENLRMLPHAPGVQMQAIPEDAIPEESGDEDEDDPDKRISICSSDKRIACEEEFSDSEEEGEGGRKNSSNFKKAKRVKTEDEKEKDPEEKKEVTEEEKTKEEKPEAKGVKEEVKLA
Sequence of HDAC6 (Q9UBN7 whole entry): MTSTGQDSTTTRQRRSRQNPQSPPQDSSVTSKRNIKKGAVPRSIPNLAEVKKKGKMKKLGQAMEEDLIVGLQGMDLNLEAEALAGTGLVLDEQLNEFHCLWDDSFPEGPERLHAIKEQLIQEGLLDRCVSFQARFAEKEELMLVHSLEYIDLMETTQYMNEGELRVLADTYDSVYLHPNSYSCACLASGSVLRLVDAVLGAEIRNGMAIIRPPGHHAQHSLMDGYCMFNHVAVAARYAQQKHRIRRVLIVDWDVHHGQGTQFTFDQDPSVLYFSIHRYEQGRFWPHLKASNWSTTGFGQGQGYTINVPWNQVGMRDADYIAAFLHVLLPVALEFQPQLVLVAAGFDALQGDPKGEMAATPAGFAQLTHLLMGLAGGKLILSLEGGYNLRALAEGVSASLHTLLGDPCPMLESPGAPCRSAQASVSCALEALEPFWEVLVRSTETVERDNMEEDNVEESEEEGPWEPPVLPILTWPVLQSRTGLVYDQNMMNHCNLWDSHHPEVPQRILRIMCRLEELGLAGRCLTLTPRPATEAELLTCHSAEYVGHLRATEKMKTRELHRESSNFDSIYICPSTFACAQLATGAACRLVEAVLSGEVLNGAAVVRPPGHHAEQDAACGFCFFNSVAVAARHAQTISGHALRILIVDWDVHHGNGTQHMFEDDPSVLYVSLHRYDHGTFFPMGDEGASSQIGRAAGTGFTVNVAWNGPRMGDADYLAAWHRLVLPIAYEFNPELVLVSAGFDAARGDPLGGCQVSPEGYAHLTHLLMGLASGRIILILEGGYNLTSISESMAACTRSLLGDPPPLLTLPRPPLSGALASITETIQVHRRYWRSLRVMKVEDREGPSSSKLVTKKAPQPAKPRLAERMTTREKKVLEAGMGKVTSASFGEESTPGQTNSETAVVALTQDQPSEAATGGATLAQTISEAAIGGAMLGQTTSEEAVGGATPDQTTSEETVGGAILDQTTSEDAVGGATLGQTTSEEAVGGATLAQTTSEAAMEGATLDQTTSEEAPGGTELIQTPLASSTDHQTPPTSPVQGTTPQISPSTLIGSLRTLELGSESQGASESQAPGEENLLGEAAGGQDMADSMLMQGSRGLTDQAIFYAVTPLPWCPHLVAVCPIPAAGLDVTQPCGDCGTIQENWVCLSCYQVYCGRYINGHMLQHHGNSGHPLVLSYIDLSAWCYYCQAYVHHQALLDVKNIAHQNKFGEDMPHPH

Usually IC50 stands for the concentration at which inhibition is half-maximal. Usually Cmax stands for the peak of the concentration-time curve. For orientation: half-life means how long it takes for the measured level to halve. The low end stands for fast loss, the high end for slow loss. With `CS(=O)(=O)NCC(Nc1ncc(-c2nnc(C(F)F)o2)cn1)c1ccc(F)cc1F` (single isomer, unassigned) [103(+), N-(2-((5-(5-(difluoromethyl)-1,3,4-oxadiazol-2-yl)pyrimidin-2-yl)amino)-2-(2,4-difluorophenyl)ethyl)methanesulfonamide], on HDAC1, the IC50 is above 30 µM. In addition, the IC50 at HDAC6 was determined as 0.016 µM. Also, in series [1], the highest level (Cmax) was 2370 ng/mL and the half-life was 3.2 h.
`CN(CC(Nc1ncc(-c2nnc(C(F)F)o2)cn1)c1ccc(F)cc1)S(C)(=O)=O` (single isomer, unassigned) [113(+), N-(2-((5-(5-(difluoromethyl)-1,3,4-oxadiazol-2-yl)pyrimidin-2-yl)amino)-2-(4-fluorophenyl)ethyl)-N-methylmethanesulfonamide]: in series [1], the concentration peaked (Cmax) at 1360 ng/mL and the half-life is 3.5 h.
For `CS(=O)(=O)NCC(Nc1ncc(-c2nnc(C(F)F)o2)cn1)c1ccc(OC(F)F)cc1F` (single isomer, unassigned) [116(+), N-(2-(4-(difluoromethoxy)-2-fluorophenyl)-2-((5-(5-(difluoromethyl)-1,3,4-oxadiazol-2-yl)pyrimidin-2-yl)amino)ethyl)methanesulfonamide], the IC50 on HDAC1 was above 30 µM. Moreover, the IC50 on HDAC6 stood at 0.017 µM. In series [1], the highest level (Cmax) was 1010 ng/mL and the half-life is 4.5 h.
With `CS(=O)(=O)NCC(Nc1ncc(-c2nnc(C(F)F)o2)cn1)c1ccc(F)c(F)c1` (single isomer, unassigned) [171(+), N-(2-((5-(5-(difluoromethyl)-1,3,4-oxadiazol-2-yl)pyrimidin-2-yl)amino)-2-(3,4-difluorophenyl)ethyl)methanesulfonamide], the IC50 on HDAC1 is above 30 µM. The half-maximal inhibitory concentration (IC50) at HDAC6 was determined as 0.23 µM. In series [1], this compound showed a Cmax of 2590 ng/mL and a half-life of 3.3 h.
Consider `CS(=O)(=O)NCC(Nc1ncc(-c2nnc(C(F)F)o2)cn1)c1ccc(Cl)cc1` (single isomer, unassigned) [173(+), N-(2-(4-chlorophenyl)-2-((5-(5-(difluoromethyl)-1,3,4-oxadiazol-2-yl)pyrimidin-2-yl)amino)ethyl)methanesulfonamide], for which the IC50 on HDAC1 was above 30 µM. For the same compound, at HDAC6, the IC50 turned out to be 0.024 µM. In series [1], the highest level (Cmax) was 2820 ng/mL and the half-life was 5.6 h.
With `O=S(=O)(NCC(Nc1ncc(-c2nnc(C(F)F)o2)cn1)c1ccc(F)cc1F)C1CC1` (stereo not drawn) [142(+), N-(2-((5-(5-(difluoromethyl)-1,3,4-oxadiazol-2-yl)pyrimidin-2-yl)amino)-2-(2,4-difluorophenyl)ethyl)cyclopropanesulfonamide], the IC50 at HDAC1 is above 30 µM. For the same compound, the IC50 on HDAC6 was 0.035 µM. In addition, in series [1], the concentration peaked (Cmax) at 2530 ng/mL and the half-life was 4.1 h.
On to `O=S(=O)(NCC(Nc1ncc(-c2nnc(C(F)F)o2)cn1)c1ccc(OC(F)F)cc1F)C1CC1` (stereo not drawn) [150(+), N-(2-(4-(difluoromethoxy)-2-fluorophenyl)-2-((5-(5-(difluoromethyl)-1,3,4-oxadiazol-2-yl)pyrimidin-2-yl)amino)ethyl)cyclopropanesulfonamide], for which the IC50 is above 30 µM on HDAC1 and 0.023 µM on HDAC6. In series [1], this compound registered a Cmax of 3390 ng/mL. This compound also showed a half-life in series [1] of 9.3 h.
`CCS(=O)(=O)NCC(Nc1ncc(-c2nnc(C(F)F)o2)cn1)c1ccc(F)cc1` (stereo not drawn) [Example 108, N-(2-((5-(5-(difluoromethyl)-1,3,4-oxadiazol-2-yl)pyrimidin-2-yl)amino)-2-(4-fluorophenyl)ethyl)ethanesulfonamide]: the IC50 at HDAC1 was above 30 µM. In addition, the IC50 on HDAC6 amounted to 0.027 µM. In series [1], this compound showed a Cmax of 2120 ng/mL and a half-life of 2.3 h.
For `CC(C)S(=O)(=O)NCC(Nc1ncc(-c2nnc(C(F)F)o2)cn1)c1ccc(F)cc1` (stereo not drawn) [Example 109, N-(2-((5-(5-(difluoromethyl)-1,3,4-oxadiazol-2-yl)pyrimidin-2-yl)amino)-2-(4-fluorophenyl)ethyl)propane-2-sulfonamide], in that order: above 30 µM, 0.037 µM, 678 ng/mL and 3.4 h.
`CCCS(=O)(=O)NCC(Nc1ncc(-c2nnc(C(F)F)o2)cn1)c1ccc(F)cc1` (stereo not drawn) [Example 111, N-(2-((5-(5-(difluoromethyl)-1,3,4-oxadiazol-2-yl)pyrimidin-2-yl)amino)-2-(4-fluorophenyl)ethyl)propane-1-sulfonamide]: the IC50 on HDAC1 was above 30 µM; at HDAC6, 0.032 µM.
For the compound `CC(C)CS(=O)(=O)NCC(Nc1ncc(-c2nnc(C(F)F)o2)cn1)c1ccc(F)cc1` (stereo not drawn) [Example 112, N-(2-((5-(5-(difluoromethyl)-1,3,4-oxadiazol-2-yl)pyrimidin-2-yl)amino)-2-(4-fluorophenyl)ethyl)-2-methylpropane-1-sulfonamide], the IC50 on HDAC1 is above 30 µM; on HDAC6, 0.032 µM.
For `CN(CC(Nc1ncc(-c2nnc(C(F)F)o2)cn1)c1ccc(F)cc1)S(C)(=O)=O` (stereo not drawn) [Example 113, N-(2-((5-(5-(difluoromethyl)-1,3,4-oxadiazol-2-yl)pyrimidin-2-yl)amino)-2-(4-fluorophenyl)ethyl)-N-methylmethanesulfonamide], the values for the IC50 at HDAC1 and on HDAC6 were above 30 µM and 0.021 µM, respectively.
As to `O=C(NCC(Nc1ncc(-c2nnc(C(F)F)o2)cn1)c1ccc(F)cc1)C(F)(F)F` (stereo not drawn) [Example 114, N-(2-((5-(5-(difluoromethyl)-1,3,4-oxadiazol-2-yl)pyrimidin-2-yl)amino)-2-(4-fluorophenyl)ethyl)-2,2,2-trifluoroacetamide], the IC50 is above 30 µM on HDAC1 and 0.05 µM at HDAC6.
On to `CS(=O)(=O)N(CC(Nc1ncc(-c2nnc(C(F)F)o2)cn1)c1ccc(F)cc1)CC(F)(F)F` (stereo not drawn) [Example 118, N-(2-((5-(5-(difluoromethyl)-1,3,4-oxadiazol-2-yl)pyrimidin-2-yl)amino)-2-(4-fluorophenyl)ethyl)-N-(2,2,2-trifluoroethyl)methanesulfonamide], for which the IC50 is above 30 µM on HDAC1 and 0.072 µM on HDAC6.
For `CS(=O)(=O)NCCC(Nc1ncc(-c2nnc(C(F)F)o2)cn1)c1ccc(F)cc1` (stereo not drawn) [Example 125, N-(3-((5-(5-(difluoromethyl)-1,3,4-oxadiazol-2-yl)pyrimidin-2-yl)amino)-3-(4-fluorophenyl)propyl)methanesulfonamide] the same measures were above 30 µM and 0.026 µM.
For `CS(=O)(=O)Nc1cccc(C(Nc2ncc(-c3nnc(C(F)F)o3)cn2)c2ccc(F)cc2)c1` (stereo not drawn) [Example 128, N-(3-(((5-(5-(difluoromethyl)-1,3,4-oxadiazol-2-yl)pyrimidin-2-yl)amino)(4-fluorophenyl)methyl)phenyl)methanesulfonamide], the results for the IC50 at HDAC1 and at HDAC6 were above 30 µM and 0.13 µM, respectively.
As for `CS(=O)(=O)Nc1ccc(C(Nc2ncc(-c3nnc(C(F)F)o3)cn2)c2ccc(F)cc2)cc1` (stereo not drawn) [Example 129, N-(4-(((5-(5-(difluoromethyl)-1,3,4-oxadiazol-2-yl)pyrimidin-2-yl)amino)(4-fluorophenyl)methyl)phenyl)methanesulfonamide], the IC50 at HDAC1 was above 30 µM; at HDAC6 it was 0.25 µM.
With `CS(=O)(=O)Nc1ccccc1C(Nc1ncc(-c2nnc(C(F)F)o2)cn1)c1ccc(F)cc1` (stereo not drawn) [Example 130, N-(2-(((5-(5-(difluoromethyl)-1,3,4-oxadiazol-2-yl)pyrimidin-2-yl)amino)(4-fluorophenyl)methyl)phenyl)methanesulfonamide], the IC50 at HDAC1 is above 30 µM; on HDAC6, 0.19 µM.
Turning to `CS(=O)(=O)Nc1ccccc1CC(Nc1ncc(-c2nnc(C(F)F)o2)cn1)c1ccc(F)cc1` (stereo not drawn) [Example 131, N-(2-(2-((5-(5-(difluoromethyl)-1,3,4-oxadiazol-2-yl)pyrimidin-2-yl)amino)-2-(4-fluorophenyl)ethyl)phenyl)methanesulfonamide], the IC50 was above 30 µM on HDAC1 and 0.058 µM on HDAC6.
For `CS(=O)(=O)Nc1cccc(CC(Nc2ncc(-c3nnc(C(F)F)o3)cn2)c2ccc(F)cc2)c1` (stereo not drawn) [Example 132, N-(3-(2-((5-(5-(difluoromethyl)-1,3,4-oxadiazol-2-yl)pyrimidin-2-yl)amino)-2-(4-fluorophenyl)ethyl)phenyl)methanesulfonamide], in that order: above 30 µM and 0.083 µM.
`CS(=O)(=O)Nc1ccc(CC(Nc2ncc(-c3nnc(C(F)F)o3)cn2)c2ccc(F)cc2)cc1` (stereo not drawn) [Example 133, N-(4-(2-((5-(5-(difluoromethyl)-1,3,4-oxadiazol-2-yl)pyrimidin-2-yl)amino)-2-(4-fluorophenyl)ethyl)phenyl)methanesulfonamide]: the figures for the IC50 on HDAC1 and at HDAC6 were above 30 µM and 0.33 µM, respectively.
As for `O=C(CCCCCCNC(=O)c1cnc(N(c2ccccc2)c2ccccc2)nc1)NO` [Ricolinostat, ricolinostat, reference compound], in series [1], the peak level (Cmax) was 47 ng/mL and the half-life is 2.7 h.

Source of the values: US10357493B2, “Metalloenzyme inhibitor compounds” (Selenity Therapeutics (Bermuda), Ltd., priority 2017, dated 2019).
